Legend:
[1] = test system: CHEAL (common lambsquarters); assay: Pre-emergence herbicidal activity, warm season; format: in vivo, Chenopodium album; settings: GR80 = lowest tested rate (300, 100, 30, 10 g/ha) with 80% or greater inhibition; approx. 14 days after treating; 30/21° C.
Summary of the method: (§1)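 Seeds sown in sterilised fertilised topsoil received surface-applied compound in 50:50 acetone/water, typically at 300, 100, 30 and 10 g/ha, then greenhouse-grown at 30/21° C (warm-season species) or 18/13° C (cool-season species). Percent inhibition versus untreated plants was scored at about 14 days, giving GR80; an asterisk marks activity short of 80% at the top rate.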

ECHCG (barnyardgrass) = assay: Pre-emergence herbicidal activity, warm season; format: in vivo, Echinochloa crus-galli; settings: for Pre-emergence activity (GR80) ECHCG: GR80 = lowest tested rate (300, 100, 30, 10 g/ha) with 80% or greater inhibition, approx. 14 days after treating, 30/21° C.
Summary of the method: (§2)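 GR80 values derive from percent inhibition relative to untreated plants, read roughly 14 days after sowing and pre-emergence soil-surface treatment (compound in 50:50 acetone/water; rates typically 10, 30, 100, 300 g/ha). Warm-season weeds grew at 30/21° C day/night, cool-season ones at 18/13° C; an asterisk marks activity without reaching 80% at the highest rate.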

PANDI (fall panicum) = assay: Pre-emergence herbicidal activity, warm season; format: in vivo, Panicum dichotomiflorum; settings: GR80 = lowest tested rate (300, 100, 30, 10 g/ha) with 80% or greater inhibition; approx. 14 days after treating; 30/21° C.
Summary of the method: as §2

SASKR (russian thistle) = assay: Pre-emergence herbicidal activity, cool season; format: in vivo, Salsola kali; settings: lowest tested rate with 80% or greater inhibition; rates 300, 100, 30, 10 g/ha; about 14 days
Summary of the method: as §1

STEME (common chickweed) [2] = assay: Pre-emergence herbicidal activity, cool season; format: in vivo, Stellaria media; settings: lowest tested rate with 80% or greater inhibition; rates 300, 100, 30, 10 g/ha; about 14 days
Summary of the method: as §1

[3] = test system: LAMPU (purple deadnettle); assay: Pre-emergence herbicidal activity, cool season; format: in vivo, Lamium purpureum; settings: lowest tested rate with 80% or greater inhibition; rates 300, 100, 30, 10 g/ha; about 14 days
Summary of the method: as §1

[4] = test system: PANMI (wild proso millet); assay: Pre-plant incorporated (PPI) herbicidal activity, warm season; format: in vivo, Panicum miliaceum
Protocol: (§3) In another set of tests, the pre-plant incorporated (PPI) activity of compounds of this invention was evaluated on the same species as for the pre-emergence tests described above. In the PPI tests the following procedure, designed to simulate PPI application, was used.
(§4) A pre-prepared topsoil mixture (described above) was placed in a pot and compacted to a depth of 1.0 to 1.25 cm from the top of the pot. Seeds of each of several monocotyledonous and dicotyledonous annual plant species were placed on top of the soil. A sufficient quantity of soil to cover the seeds and level fill the pot was weighed into an open container. A known amount of the test compound was dissolved or suspended in an organic solvent and applied by spraying to this cover soil. The cover soil was thoroughly mixed to distribute the test compound throughout the cover soil, and was then applied as a cover layer over the seeds. Untreated soil was used as a cover layer for control pots. After treatment the plants were placed in a greenhouse where they received 0.64 cm of overhead irrigation. All subsequent watering consisted of a light overhead mist and/or subirrigation as needed for germination and growth. Tables 9 and 10 below relate to warm season plant species which were placed after pre-emergence treatment in a greenhouse with a 30/21° C. day/night temperature regime. Tables 11 and 12 below relates to cool season plant species placed after pre-emergence treatment in a greenhouse or growth chamber with an 18/13° C. day/night temperature regime. Only the compounds of Examples 1, 6, 8, 11, 13 and 15-20 were included in PPI tests.
(§5) Approximately 14 days after planting and treating, the plants were observed and herbicidal efficacy recorded as percent inhibition by comparison with untreated plants.

[5] = test system: SORHA (johnsongrass (seedling)); assay: as above; format: in vivo, Sorghum halepense
Protocol: as §3, §4, §5

SORVU (shattercane) = assay: as above; format: in vivo, Sorghum vulgare
Protocol: as §3, §4, §5

STEME (common chickweed) [6] = assay: Pre-plant incorporated (PPI) herbicidal activity, cool season; format: in vivo, Stellaria media
Protocol: as §3, §4, §5

ALOMY (blackgrass) = assay: as above; format: in vivo, Alopecurus myosuroides
Protocol: as §3, §4, §5

corn (ZEAMX) = assay: Selectivity test, PPI, warm season crop; format: in vivo, Zea mays; settings: PPI application
Protocol: as §4, §5
Additional pre-emergence and PPI tests were conducted by the procedures described above, on warm and cool season weed species in the presence of crop species, to assess herbicidal selectivity. Crop species included in warm season tests were corn (Zea mays, ZEAMX), rice (Oryza sativa, ORYSA) and soybean (Glycine max, GLYMX). Crop species included in cool season tests were wheat (Triticum aestivum, TRZAW), barley (Hordeunm vulgare, HORVX) and oilseed rape (Brassica napus, BRSNS).
Tables 15 and 16 relate to pre-emergence and PPI tests respectively on warm season species. Table 17 relates to pre-emergence tests on cool season species.

[7] = pre-plant incorporated, lowest tested rate with 80% or greater inhibition, about 14 days
[8] = weed, PPI application, 100 g/ha
[9] = weed, PPI application, 300 g/ha
[10] = weed, PPI application, 900 g/ha

CCN(CC)C(=O)n1cnc(S(=O)(=O)C(F)(F)Br)n1 [Example 1, 3-(bromodifluoromethylsulfonyl)-1-(N,N-diethylcarbamoyl)-1,2,4-triazole]
Pre-emergence activity (GR80) CHEAL [1]: 300 g/ha
inhibition at 10 g/ha (ECHCG (barnyardgrass); Echinochloa crus-galli, pre-emergence application, 10 g/ha, read-out: Percent inhibition, weed ECHCG): 0%
inhibition at 30 g/ha (ECHCG (barnyardgrass); Echinochloa crus-galli, pre-emergence application, 30 g/ha, read-out: Percent inhibition, weed ECHCG): 10%
inhibition at 100 g/ha (ECHCG (barnyardgrass); Echinochloa crus-galli, pre-emergence application, 100 g/ha, read-out: Percent inhibition, weed ECHCG): 45%
inhibition at 300 g/ha (ECHCG (barnyardgrass); Echinochloa crus-galli, pre-emergence application, 300 g/ha, read-out: Percent inhibition, weed ECHCG): 80%
inhibition at 900 g/ha (ECHCG (barnyardgrass); Echinochloa crus-galli, pre-emergence application, 900 g/ha, read-out: Percent inhibition, weed ECHCG): 95%
Pre-emergence activity (GR80) ECHCG (ECHCG (barnyardgrass)): 30 g/ha
Pre-emergence activity (GR80) PANDI (PANDI (fall panicum)): 30 g/ha
Pre-emergence activity GR80, SASKR (SASKR (russian thistle)): 300 g/ha
Pre-emergence activity GR80, STEME (STEME (common chickweed) [2]): 100 g/ha
Pre-emergence activity GR80, LAMPU [3]: 30 g/ha
inhibition at 10 g/ha ([4]; Panicum miliaceum, PPI application, 10 g/ha, read-out: Percent inhibition PANMI): 0%
inhibition at 30 g/ha ([4]; Panicum miliaceum, PPI application, 30 g/ha, read-out: Percent inhibition PANMI): 60%
inhibition at 100 g/ha ([4]; Panicum miliaceum, PPI application, 100 g/ha, read-out: Percent inhibition PANMI): 99%
inhibition at 300 g/ha ([4]; Panicum miliaceum, PPI application, 300 g/ha, read-out: Percent inhibition PANMI): 100%
inhibition at 900 g/ha ([4]; Panicum miliaceum, PPI application, 900 g/ha, read-out: Percent inhibition PANMI): 100%
PPI activity GR80, PANMI [4, 7]: 30 g/ha
inhibition at 10 g/ha ([5]; Sorghum halepense, PPI application, 10 g/ha, read-out: Percent inhibition SORHA): 70%
inhibition at 30 g/ha ([5]; Sorghum halepense, PPI application, 30 g/ha, read-out: Percent inhibition SORHA): 50%
inhibition at 100 g/ha ([5]; Sorghum halepense, PPI application, 100 g/ha, read-out: Percent inhibition SORHA): 100%
inhibition at 300 g/ha ([5]; Sorghum halepense, PPI application, 300 g/ha, read-out: Percent inhibition SORHA): 100%
inhibition at 900 g/ha ([5]; Sorghum halepense, PPI application, 900 g/ha, read-out: Percent inhibition SORHA): 100%
PPI activity GR80, SORHA [5, 7]: 30 g/ha
inhibition at 10 g/ha (SORVU (shattercane); Sorghum bicolor, PPI application, 10 g/ha, read-out: Percent inhibition SORVU): 20%
inhibition at 30 g/ha (SORVU (shattercane); Sorghum bicolor, PPI application, 30 g/ha, read-out: Percent inhibition SORVU): 80%
inhibition at 100 g/ha (SORVU (shattercane); Sorghum bicolor, PPI application, 100 g/ha, read-out: Percent inhibition SORVU): 100%
inhibition at 300 g/ha (SORVU (shattercane); Sorghum bicolor, PPI application, 300 g/ha, read-out: Percent inhibition SORVU): 100%
inhibition at 900 g/ha (SORVU (shattercane); Sorghum bicolor, PPI application, 900 g/ha, read-out: Percent inhibition SORVU): 100%
PPI activity GR80, SORVU (SORVU (shattercane); [7]): 100 g/ha
inhibition at 30 g/ha (STEME (common chickweed) [6]; Stellaria media, weed, PPI application, 30 g/ha, read-out: Percent inhibition STEME): 60%
inhibition at 100 g/ha (STEME (common chickweed) [6]; Stellaria media, weed, PPI application, 100 g/ha, read-out: Percent inhibition STEME): 100%
inhibition at 300 g/ha (STEME (common chickweed) [6]; Stellaria media, weed, PPI application, 300 g/ha, read-out: Percent inhibition STEME): 99%
inhibition at 900 g/ha (STEME (common chickweed) [6]; Stellaria media, weed, PPI application, 900 g/ha, read-out: Percent inhibition STEME): 95%
PPI activity GR80, STEME (STEME (common chickweed) [6]; [7]): 100 g/ha
inhibition at 30 g/ha (ALOMY (blackgrass); Alopecurus myosuroides, weed, PPI application, 30 g/ha, read-out: Percent inhibition ALOMY): 80%
inhibition at 100 g/ha (ALOMY (blackgrass); Alopecurus myosuroides, weed, PPI application, 100 g/ha, read-out: Percent inhibition ALOMY): 99%
inhibition at 300 g/ha (ALOMY (blackgrass); Alopecurus myosuroides, weed, PPI application, 300 g/ha, read-out: Percent inhibition ALOMY): 100%
inhibition at 900 g/ha (ALOMY (blackgrass); Alopecurus myosuroides, weed, PPI application, 900 g/ha, read-out: Percent inhibition ALOMY): 100%
PPI activity GR80, ALOMY (ALOMY (blackgrass); [7]): 100 g/ha
inhibition at 10 g/ha (corn (ZEAMX); Zea mays, 10 g/ha, read-out: Percent inhibition ZEAMX): 0%
inhibition at 30 g/ha (corn (ZEAMX); Zea mays, 30 g/ha, read-out: Percent inhibition ZEAMX): 0%
inhibition at 100 g/ha (corn (ZEAMX); Zea mays, 100 g/ha, read-out: Percent inhibition ZEAMX): 0%
inhibition at 300 g/ha (corn (ZEAMX); Zea mays, 300 g/ha, read-out: Percent inhibition ZEAMX): 25%
inhibition at 900 g/ha (corn (ZEAMX); Zea mays, 900 g/ha, read-out: Percent inhibition ZEAMX): 70%

CCN(CC)C(=O)n1cnc(S(=O)(=O)C(F)(F)F)n1 [Example 2]
Pre-emergence activity (GR80) CHEAL [1]: 100 g/ha
Pre-emergence activity (GR80) ECHCG (ECHCG (barnyardgrass)): 30 g/ha
Pre-emergence activity (GR80) PANDI (PANDI (fall panicum)): 30 g/ha
Pre-emergence activity GR80, SASKR (SASKR (russian thistle)): 100 g/ha
Pre-emergence activity GR80, STEME (STEME (common chickweed) [2]): 10 g/ha
Pre-emergence activity GR80, LAMPU [3]: 10 g/ha
Percent inhibition PANMI ([4]; PPI application, 30 g/ha): 20%
Percent inhibition PANMI ([4]; PPI application, 100 g/ha): 80%
Percent inhibition PANMI ([4]; PPI application, 300 g/ha): 100%
Percent inhibition SORHA ([5]; PPI application, 30 g/ha): 70%
Percent inhibition SORHA ([5]; PPI application, 100 g/ha): 80%
Percent inhibition SORHA ([5]; PPI application, 300 g/ha): 100%
Percent inhibition SORHA ([5]; PPI application, 900 g/ha): 100%
Percent inhibition SORVU (SORVU (shattercane); PPI application, 30 g/ha): 50%
Percent inhibition SORVU (SORVU (shattercane); PPI application, 100 g/ha): 100%
Percent inhibition SORVU (SORVU (shattercane); PPI application, 300 g/ha): 95%
Percent inhibition SORVU (SORVU (shattercane); PPI application, 900 g/ha): 100%
Percent inhibition STEME (STEME (common chickweed) [6]; weed, PPI application, 30 g/ha): 60%
Percent inhibition STEME (STEME (common chickweed) [6]; [8]): 90%
Percent inhibition STEME (STEME (common chickweed) [6]; [9]): 80%
Percent inhibition STEME (STEME (common chickweed) [6]; [10]): 95%
Percent inhibition ALOMY (ALOMY (blackgrass); weed, PPI application, 30 g/ha): 50%
Percent inhibition ALOMY (ALOMY (blackgrass); [8]): 90%
Percent inhibition ALOMY (ALOMY (blackgrass); [9]): 100%
Percent inhibition ALOMY (ALOMY (blackgrass); [10]): 100%
Percent inhibition ZEAMX (corn (ZEAMX); 30 g/ha): 5%
Percent inhibition ZEAMX (corn (ZEAMX); 100 g/ha): 10%
Percent inhibition ZEAMX (corn (ZEAMX); 300 g/ha): 50%
Percent inhibition ZEAMX (corn (ZEAMX); 900 g/ha): 80%
